Experimental data from patent US4824937A, “Synthetic natriuretic peptides” (501 Advanced Peptide Development, Ltd., priority 1986, dated 1989).
Ends that are not written are not given here.

Tests used:
[1] = system: rabbit thoracic aorta strips; experiment: Vasorelaxant activity against noradrenaline-induced tension in aorta strips; conditions: for Relative Potency: potency of BG-3009 taken arbitrarily as 100; for Ratio (noradrenaline EC50 in the presence of compound divided by EC50 with noradrenaline alone): added 5 min before noradrenaline
Procedure: The vasorelaxant activities of the SNP of this invention are determined in vitro using freshly prepared rabbit thoracic aorta strips, helically cut according to the method of Furchgott et al., 1953 J. Pharmacol. Exp. Therap. 108, 129. One end of each strip is attached to a holding rod, the other end is equipped with a silk thread which is kept under a tension of about 5 g, and the complete assembly is kept over night at 4° C. in oxygenated Krebs solution. On the day of the experiment each strip is set up in a 10 ml bath of oxygenated (5% CO2) Krebs solution at 37° C. and the thread is attached to an isometric force transducer (Grass Instruments Model FT.03) connected to a polygraph (Grass Instruments Model 5). A resting tension of 5 g is applied to each strip and is readjusted until a stable resting tension is attained (45-60 minutes). The strips are then challenged repeatedly with the same dose of noradrenaline to ensure that the induced increase in tension is uniform. The stock solution of noradrenaline bitartrate (Sigma Chemical Co.) is made up in 0.001N HCl, and dilutions are freshly prepared in deionized water containing 0.0001M ascorbic acid and are kept protected from light during the experiments. In each experiment two cumulative full dose-response determinations to noradrenaline alone are carried out consecutively on one strip (time control). On the other strips dose-response determinations are done with noradrenaline alone, and then repeated five minutes after having added the compound to be tested to concentrations of 2, 5, 50, and 500 ng/ml, respectively. The tension elicited by each concentration of noradrenaline is expressed as a percentage of the maximal response obtained with noradrenaline, and the concentration of noradrenaline producing a tension equal to 50% of the maximal response is calculated (EC50). The same calculations are also carried out with the results obtained in the presence of the various concentrations of the compound to be tested, and the EC50 thus obtained is divided by the EC50 obtained in the absence of said compound, to arrive at a ration which is clear indication of the potency of the respective compound.
The SNP of formula 1 in which R^1 is H-D-Tyr, R^2 is Ile, and R^3 is OH, identified by the code number 05-22-0318 is tested for its vasorelaxant activities and compared with a known ANP composed of 28 amino acid residues and identified by the code number BG-3009. The test method is described above in some detail. Two rabbits are sacrificed and the thoracic aorta prepared from each animal is helically cut so as to obtain five strips from each aorta. One strip from each aorta is used for time control and is exposed to the full range of concentrations of noradrenaline alone at the beginning and at the end of the experiment, and the concentrations of noradrenaline giving 50% of the maximal response are calculated (EC50). […] One strip from each of the remaining two pairs of strips from each aorta is then exposed to the full range of concentrations of noradrenaline alone as described above, and the responses are noted. The other strip from the same pair is first exposed to concentrations of 2, 5, 50, and 500 ng/ml of the compound to be tested, respectively, and five minutes after having added the above concentrations of the compound to be tested the strip is challenged with noradrenaline at increasing concentrations and the responses obtained are noted again. The EC50 obtained in the presence of the respective concentration of the compound to be tested is then divided by the EC50 obtained in the absence of said compound with noradrenaline alone, and the ratio of the two EC50's is calculated to give a clear measure of the vasorelaxant properties of said compound. Furthermore, when taking the potency of the reference compound having the code number BG-3009 arbitrarily as 100 the relative potencies of the above SNP (code No. 05-22-0318) at the respective levels of concentration are also calculated. […]

[2] = system: male normotensive Sprague-Dawley rats; experiment: Diuretic activity: urine flow after i.v. bolus in anesthetized rats; format: in vivo, rat; conditions: 3.5 mcg/kg i.v. bolus; for URINE FLOW: 8 rats
Procedure: The diuretic activities of the synthetic natriuretic peptides (SNP) of this invention and their effects upon electrolyte excretion are determined in male normotensive Sprague-Dawley rats. The animals are anesthetized with sodium pentobarbital (55 mg/kg), the femoral vein is cannulated for injection of the test compound and for infusion of Ringer's solution, the bladder is cannulated for urine collection, and the trachea is cannulated to ensure a clean airway. The animals are infused with Ringer's solution at a rate of 1.2 ml/20 min. for 20 minutes, the infusion rate is then decreased to 1.2 ml/hour for a further 20 minutes, and urine collections are started at the end of that period. Three 10-minute collections are taken as control samples, and at the end of the third 10-minute period the SNP to be tested is injected as a bolus over 30 seconds into the femoral vein. Infusion of Ringer's solution at 1.2 ml/hour is continued for the duration of the experiment, and urine samples are collected every 10 minutes over 4 hours, their respective volumes are determined, and the concentrations of Na^+, Cl^-, and K^+ are measured using a NovaBiomedical electrolyte analyzer. The above determinations are done on samples pooled from all animals in a given experiment, and urine flow is calculated as ml/min./kg body weight while electrolyte concentrations are calculated as mmol/l/gm kidney tissue.
Details of the assay method are described above, and it remains only to be stated that 8 male normotensive Sprague-Dawley rats are used in each group. […] Urine flow then decreases sharply and is at control volumes at about 40 minutes where it remains until about 140 minutes.

## BG-3009: known ANP composed of 28 amino acid residues, identical with the ANP described by Flynn et al. (SLRRSSCFGGRIDRIGAQSGLGCNSFRY; not fully specified; ends and bridges not checked; UniProt P01161 123-150, looked up)
[1]; 2 ng/ml
  Relative Potency: 100
[1]; 5 ng/ml
  Relative Potency: 100
[1]; 50 ng/ml
  Relative Potency: 100
[1]; 500 ng/ml
  Relative Potency: 100
[1]; compound concentration 2 ng/ml
  Ratio (noradrenaline EC50 in the presence of compound divided by EC50 with noradrenaline alone): 2.9
[1]; compound concentration 5 ng/ml
  Ratio (noradrenaline EC50 in the presence of compound divided by EC50 with noradrenaline alone): 3.8
[1]; compound concentration 50 ng/ml
  Ratio (noradrenaline EC50 in the presence of compound divided by EC50 with noradrenaline alone): 25.8
[1]; compound concentration 500 ng/ml
  Ratio (noradrenaline EC50 in the presence of compound divided by EC50 with noradrenaline alone): 26.1
[2]; from 150 minutes (BG-3009: after 130 minutes) to the end of the experiment
  effect on urine flow, late phase (in words): hardly noticeable and may not be significant
[2]; from injection up to 130-140 minutes
  effect on urine flow, early phase (in words): shows similar effects up to 130 minutes
[2]; 10 min after injection
  URINE FLOW: 333.7 ml./min./kg. body wt × 10^-3
[2]; 20 min after injection
  URINE FLOW: 55.7 ml./min./kg. body wt × 10^-3
[2]; 30 min after injection
  URINE FLOW: 23.3 ml./min./kg. body wt × 10^-3
[2]; 40 min after injection
  URINE FLOW: 16.4 ml./min./kg. body wt × 10^-3
[2]; 50 min after injection
  URINE FLOW: 16.9 ml./min./kg. body wt × 10^-3
[2]; 60 min after injection
  URINE FLOW: 16.7 ml./min./kg. body wt × 10^-3
[2]; 70 min after injection
  URINE FLOW: 16.4 ml./min./kg. body wt × 10^-3
[2]; 80 min after injection
  URINE FLOW: 16.4 ml./min./kg. body wt × 10^-3
[2]; 90 min after injection
  URINE FLOW: 15.2 ml./min./kg. body wt × 10^-3
[2]; 100 min after injection
  URINE FLOW: 16.0 ml./min./kg. body wt × 10^-3
[2]; 110 min after injection
  URINE FLOW: 17.2 ml./min./kg. body wt × 10^-3
[2]; 120 min after injection
  URINE FLOW: 17.6 ml./min./kg. body wt × 10^-3
[2]; 130 min after injection
  URINE FLOW: 23.4 ml./min./kg. body wt × 10^-3
[2]; 140 min after injection
  URINE FLOW: 22.6 ml./min./kg. body wt × 10^-3
[2]; 150 min after injection
  URINE FLOW: 21.4 ml./min./kg. body wt × 10^-3
[2]; 160 min after injection
  URINE FLOW: 19.7 ml./min./kg. body wt × 10^-3
[2]; 170 min after injection
  URINE FLOW: 19.9 ml./min./kg. body wt × 10^-3
[2]; 180 min after injection
  URINE FLOW: 20.5 ml./min./kg. body wt × 10^-3
[2]; 190 min after injection
  URINE FLOW: 22.3 ml./min./kg. body wt × 10^-3
[2]; 200 min after injection
  URINE FLOW: 22.3 ml./min./kg. body wt × 10^-3
[2]; 210 min after injection
  URINE FLOW: 20.7 ml./min./kg. body wt × 10^-3
[2]; 220 min after injection
  URINE FLOW: 22.7 ml./min./kg. body wt × 10^-3
[2]; 230 min after injection
  URINE FLOW: 28.6 ml./min./kg. body wt × 10^-3
[2]; 240 min after injection
  URINE FLOW: 25.9 ml./min./kg. body wt × 10^-3
